Results on two substances are retold here after article PMC11408249, “Non-invasive in vivo imaging of changes in Collagen III turnover in myocardial fibrosis” (npj Imaging, 2024).

In the assay the target is T1, COL3 (Mus musculus, UniProt P08121).
T1 construct: from tissue; host or cells: infarcted left-ventricular myocardium of female CD1 mice, in vivo
T1 sequence (P08121 155-1219 limits assumed): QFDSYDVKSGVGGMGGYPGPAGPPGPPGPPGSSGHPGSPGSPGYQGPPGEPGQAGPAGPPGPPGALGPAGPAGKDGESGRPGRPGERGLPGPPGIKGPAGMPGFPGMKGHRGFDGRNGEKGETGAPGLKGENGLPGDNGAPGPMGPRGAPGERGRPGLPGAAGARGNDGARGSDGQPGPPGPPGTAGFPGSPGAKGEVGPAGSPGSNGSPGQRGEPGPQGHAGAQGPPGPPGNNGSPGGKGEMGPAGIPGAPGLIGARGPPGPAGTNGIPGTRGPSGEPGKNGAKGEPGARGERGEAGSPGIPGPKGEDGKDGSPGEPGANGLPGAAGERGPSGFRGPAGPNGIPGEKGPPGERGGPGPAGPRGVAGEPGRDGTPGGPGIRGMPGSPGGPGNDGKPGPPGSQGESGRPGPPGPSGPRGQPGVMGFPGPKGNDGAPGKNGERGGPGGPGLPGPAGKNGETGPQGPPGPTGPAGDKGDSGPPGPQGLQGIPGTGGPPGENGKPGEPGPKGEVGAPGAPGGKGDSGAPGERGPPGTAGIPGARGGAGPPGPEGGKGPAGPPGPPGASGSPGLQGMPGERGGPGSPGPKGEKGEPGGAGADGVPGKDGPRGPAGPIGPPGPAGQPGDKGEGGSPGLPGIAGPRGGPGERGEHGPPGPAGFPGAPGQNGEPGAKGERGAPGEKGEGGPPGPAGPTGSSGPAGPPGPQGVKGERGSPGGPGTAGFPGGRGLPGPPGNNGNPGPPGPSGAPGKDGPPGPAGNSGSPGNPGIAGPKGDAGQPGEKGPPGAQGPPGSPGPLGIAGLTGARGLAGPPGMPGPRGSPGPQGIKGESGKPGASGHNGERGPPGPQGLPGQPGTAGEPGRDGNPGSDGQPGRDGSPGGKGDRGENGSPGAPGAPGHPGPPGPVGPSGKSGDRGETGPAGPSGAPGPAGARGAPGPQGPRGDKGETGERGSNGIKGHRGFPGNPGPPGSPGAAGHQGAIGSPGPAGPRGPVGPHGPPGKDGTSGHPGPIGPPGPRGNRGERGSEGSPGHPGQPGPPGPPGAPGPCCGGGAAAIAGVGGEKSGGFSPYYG
The assay is described as follows: In vivo MRI of the aortic wall in a murine model of vascular remodelling. Conditions: ApoE−/− mice after aortic injury and 12 weeks high-fat diet, i.v. 0.2 mmol/kg, LGE MRI at 3 T up to 2 h post-injection. The source says: Male ApoE^−/− mice were bred in-house and underwent surgery at 8–10 weeks of age (n = 6). Mice were anesthetised with 4% isoflurane mixed with 1% medical oxygen and anaesthesia was maintained at 2% during the surgery as previously reported. Briefly, mice underwent a laparotomy to expose the abdominal aorta, renal and iliac arteries. Two ligatures were inserted around the aorta (surgical silk, size 4–0, Aragó, Zaragoza, Spain), the first below the renal arteries and the second above the iliac bifurcation. A 30 G needle was introduced into the abdominal aorta at the level of the iliac bifurcation, via an aortic puncture. 1 mL of saline was infused into the aorta in three boluses. Finally, the needle was removed, and the puncture was repaired. The muscle and skin incisions were sutured (5-0 Vicryl, Ethicon Inc, Somerville, NJ), and the animals were allowed to recover. Mice were switched to a high-fat diet (HFD) containing 21% fat from lard and 0.15% (wt/wt) cholesterol (Special Diets Services, Witham, United Kingdom), on day 2 post-surgery for 12 weeks prior to the imaging experiments.
Anaesthesia was induced with 4% and maintained with 1–2% isoflurane during the MRI experiments. Mice (n = 3 per group) were placed supine on a single-loop surface coil (diameter = 47 mm) and the abdominal aorta was imaged up to 2 h post-injection of the monomeric (i.v. 0.2 mmol/kg, 0.2 mmol/kg Gd), the next day with the corresponding tetrameric collagen-binding probe (i.v 0.2 mmol/kg, 0.8 mmol/kg Gd) and the 3rd day using the scrambled probes (n = 2–3 per probe; i.v. 0.2 mmol/kg). This timeline ensures complete washout of one probe from the tissue before the administration of another probe. […]

With “Ac-C-RDKKVAEQS [[Gd-DOTAMA]4-SccCBP1, scrambled tetrameric Gd probe (Ac-C-…), negative control]”, the “signal enhancement of the remodelled aortic wall (in words)” value is recorded as “No signal enhancement”. In the case of “Ac-C-TEFPLRMRDWLKN [[Gd-DOTAMA]4-CBP2, tetrameric probe: tri-lysine scaffold bearing four Gd-DOTAMA units conjugated at the N-terminus of CBP2]” it was “stronger enhancement at 60 min compared with corresponding monomeric probes”.
